Reference: paper PMC5827532, “Triphenylphosphonium Moiety Modulates Proteolytic Stability and Potentiates Neuroprotective Activity of Antioxidant Tetrapeptides in Vitro” (Frontiers in Pharmacology, 2018)
Read-outs that look alike come from different tables or passages of the source.

Legend:
[1] = test system: PC-12 cells; test: H2O2-induced oxidative stress in cells (DCFDA fluorescence); assay type: cell-based, rat; details: 5 mM, 1 h, 100 mM H2O2, HBSS
Method: PC-12 cells were seeded in a 96-well plate and allowed to form a subconfluent monolayer. The cells were washed with Hank’s balanced salt solution (HBSS), pre-stained with 20 μM DCFDA and rewashed with HBSS two times. The oxidative stress in the stained cells was induced by incubating them in HBSS solution containing 100 mM H2O2 for 1 h in CO2-incubator. The synthesized oligopeptides or glutathione were added to the extracellular solution in the concentration range from 1 to 10 mM in HBSS and incubated for 1 h. The bottom fluorescent signal was acquired from the treated cells on an Infinite M200PRO microplate analyzer (TECAN) at λex = 488 nm and λem = 535 nm.

[2] = test system: PC-12 cells
Method: (§1) PC-12 cells were subjected to oxidative damage by CoCl2, L-glutamic acid, or menadione and treated with the oligopeptides as follows. Briefly, the pre-grown cells were seeded in a 96-well plate at a density of 60 000 cells per well and cultured overnight in FBS-containing α-MEM. Next day, the medium was replaced by a fresh one without FBS, and further manipulations were performed in FBS-free medium. The oxidative agents and oligopeptides were supplemented to the medium in three ways: (i) the cells were pre-cultured in the presence of oligopeptides for 24 h, then the medium was replaced by a fresh one supplemented with a damaging factor and the cells were further cultured with the factor for 24 h (CoCl2, L-glutamic acid) or 3 h (menadione) (‘pretreatment’); (ii) the damaging factor and oligopeptide were added together to cells and cultured for 24 h (CoCl2, L-glutamic acid) or 3 h (menadione) followed by medium replacement (‘cotreatment’); (iii) following treatment with menadione, the cells were additionally cultured with the oligopeptides for 24 h (‘posttreatment’). The concentration of compounds was as follows: oligopeptides 5 mM, CoCl2 2.5 mM, L-glutamic acid 50 mM, menadione 25 μM.
(§2) Eventually, viability of the treated cells was evaluated with the use of MTS assay (Promega) on an Infinite M200 PRO microplate analyzer (TECAN). The cell viability was presented as a percentage of that of the control cells cultured in the absence of compounds (100% viability).

[3] = test system: PC-12 cells; test: Cytoprotection against L-glutamic acid-induced damage (MTS assay); details: 50 mM LGlu
Method: as §1, §2

[4] = test system: PC-12 cells; test: Cytoprotection against menadione-induced damage (MTS assay); details: for protective effect: pretreatment 24 h, 5 mM, menadione 25 μM
Method: (§3) PC-12 cells were subjected to oxidative damage by CoCl2, L-glutamic acid, or menadione and treated with the oligopeptides as follows. Briefly, the pre-grown cells were seeded in a 96-well plate at a density of 60 000 cells per well and cultured overnight in FBS-containing α-MEM. Next day, the medium was replaced by a fresh one without FBS, and further manipulations were performed in FBS-free medium.
as §2

[5] = same reaction; ref Akhmadishina et al., 2017; cited from earlier work
[6] = test system: prostate cancer (PC-3) cells; details: same supplementation; ref Akhmadishina et al., 2017; cited from earlier work
[7] = biological target: T1, trypsin (Sus scrofa, UniProt P00761); test: Tryptic cleavage of oligopeptides followed by reversed-phase HPLC; assay type: in vitro ADME, porcine; details: trypsin 5 μg/mL, PBS pH 7.4; for half-life at 0.5 mg/mL: pig, oligopeptide 0.5 mg/mL, read-out: 50% degradation rate (DR50)
T1 construct: purchased PanEco company (Russia); host or cells: porcine pancreas
Method: The reaction mixture containing an oligopeptide (0.5 mg/mL) and trypsin (5 μg/mL) in phosphate buffered saline (PBS, pH 7.4) was incubated for different time intervals, and aliquots of digestion products were collected for reversed-phase high-performance liquid chromatography (HPLC). HPLC analysis was carried out on a Dionex UltiMate 3000 system (Thermo Scientific) using a Kromasil C18 column, 5 μm, 4.6 mm × 150 mm (AkzoNobel). Mobile phase contained (A) acetonitrile with 0.1% trifluoroacetic acid, (B) milli-Q water with 0.1% trifluoroacetic acid. Gradient scheme was as follows, 0–10 min: from 100% A to 100% B, 10–20 min: 100% A to 100% B, 20–25 min: 100% B. Flow rate was 0.5 mL/min; injection volume was 10 μL. The detection was performed at wavelengths of 220 and 260 nm. Chromatographic data were collected and treated with the aid of Chromeleon 6.80 software (Thermo Scientific). Peak height of the uncleaved oligopeptides was measured to calculate remaining concentration of the oligopeptides after tryptic cleavage. Concentration values were presented as mean ± SD (n = 3).
Enzymatic cleavage of the oligopeptides was performed in PBS solution using pancreatic trypsin as a pharmacologically relevant endopeptidase ([Vlieghe et al., 2010]; [Danial et al., 2012]). To compare proteolytic resistance of the initial and TPP-modified oligopeptides, the reaction conditions were optimized to provide a relatively slow kinetics. The concentration of uncleaved oligopeptides was detected by means of HPLC. In the absence of trypsin, both the unmodified tetrapeptides and TPP derivatives were stable during at least 48 h incubation at ambient temperature.

[8] = test system: human skin fibroblasts (HSF); test: MTT proliferation (cytotoxicity) assay; assay type: cell-based
Method: (§4) PC-12 rat pheochromocytoma cell line (ATTC) and human skin fibroblasts (HSF) were used. HSF were isolated as detailed in ([Tsepaeva et al., 2017]). The cells were cultured aseptically in α-MEM containing 10% fetal bovine serum (FBS), 2 mM L-glutamine, 100 U/mL penicillin and 100 μg/mL streptomycin at 37°C in humidified air atmosphere with 5% CO2.
(§5) The cytotoxicity of the oligopeptides was evaluated in the concentration range from 1 μM to 3.2 mM by means of the MTT proliferation assay in 96-well microplates as described in [Tsepaeva et al. (2017)]. The cell viability was presented as a percentage of control cells grown without compounds (100% viability value). Half-maximal inhibitory concentrations (IC50) were calculated from cell viability curves using OriginPro 8.0 software.

[9] = Dynamic light scattering; assay type: physicochemical; details: data not shown
[10] = Cytoprotection against menadione-induced damage (MTS assay); details: rat, PC-12 cells
Method: as §3, §2

[11] = Fenton-like CoCl2/H2O2 reaction, ROS detected with DCFDA probe
Method: Fenton-like reaction was initiated by mixing 0.2 mM cobalt chloride (CoCl2) and 22 mM hydrogen peroxide (H2O2) in PBS and carried out for 60 min in the presence of or without a serially diluted oligopeptide. ROS generated in the Fenton reaction were detected by using DCFDA fluorescent probe (5 μM) at λex = 488 nm and λem = 535 nm. The effect of oligopeptides was measured as a percentage of ROS generation rate in the control reaction without effectors (100%) ([Akhmadishina et al., 2017]).

[12] = test system: PC-12 cells; test: MTT proliferation (cytotoxicity) assay; assay type: cell-based, rat; details: over the whole concentration range (1 μM to 3.2 mM)
Method: as §4, §5

[13] = Cytoprotection against L-glutamic acid-induced damage (MTS assay); details: rat
Method: as §1, §2

T1 sequence (P00761 9-231): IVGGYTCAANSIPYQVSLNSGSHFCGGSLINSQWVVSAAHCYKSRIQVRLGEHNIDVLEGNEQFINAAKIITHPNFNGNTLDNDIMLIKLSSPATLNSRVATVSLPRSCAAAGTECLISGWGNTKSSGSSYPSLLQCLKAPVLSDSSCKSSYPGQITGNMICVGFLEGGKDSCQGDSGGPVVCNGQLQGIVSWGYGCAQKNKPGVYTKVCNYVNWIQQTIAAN

Compound: N[C@@H](CCC(=O)N[C@@H](CS)C(=O)NCC(=O)O)C(=O)O [GSH, γ-Glu-Cys-Gly]
- effect on DCFDA signal [1]: almost completely decreased the signal
- effect on cell damage ([2]; cotreatment, 5 mM, CoCl2 2.5 mM): insignificantly diminished cell damage
- protective effect ([2]; pretreatment 24 h, 5 mM, CoCl2 2.5 mM): did not exhibit a protective effect
- protective effect ([3]; 5 mM): relatively low protective effect
- viability at 5000 µM ([4]; Rattus norvegicus, PC-12, 24 h, read-out: cell viability): 32%
- protective effect [4]: not when applied prior to the treatment
- EC50 [5]: 544 ± 39 µM
- effect on proliferation [6]: greatly stimulated proliferation

Compound: N=C(N)NCCC[C@H](NC(=O)[C@H](Cc1ccc(O)cc1)NC(=O)CC[P+](c1ccccc1)(c1ccccc1)c1ccccc1)C(=O)N[C@@H](Cc1ccccc1)C(=O)N[C@@H](CCCCN)C(N)=O [TPP-3-YRFK-NH2]
- half-life at 0.5 mg/mL ([7]; pancreatic trypsin in PBS): ~46 min
- extent of cleavage before plateau [7]: ~80%

Compound: NCCCC[C@H](NC(=O)[C@H](Cc1ccccc1)NC(=O)[C@@H](CCCN=C(N)N)NC(=O)[C@@H](N)Cc1ccc(O)cc1)C(N)=O [YrFK-NH2]
- half-life at 0.5 mg/mL ([7]; isolated enzyme trypsin): ~876 min

Compound: N=C(N)NCCC[C@H](NC(=O)[C@@H](N)Cc1ccc(O)cc1)C(=O)N[C@@H](Cc1ccccc1)C(=O)N[C@@H](CCCCN)C(N)=O [YRFK-NH2]
- half-life at 0.5 mg/mL ([7]; isolated enzyme trypsin): ~370 min

Compound: N=C(N)NCCC[C@@H](NC(=O)[C@H](Cc1ccc(O)cc1)NC(=O)CCCCC[P+](c1ccccc1)(c1ccccc1)c1ccccc1)C(=O)N[C@@H](Cc1ccccc1)C(=O)N[C@@H](CCCCN)C(N)=O [TPP-6-YrFK-NH2]
- reaction time without any degradation [7]: at least 17 h
- half-maximal inhibition of proliferation ([8]; MTT, 3 days): millimolar concentrations
- protective effect ([3]; pretreatment, supplemented 24 h prior to damage): completely prevented cell damage
- protective effect [4]: effectively prevented cell damage
- aggregative properties [9]: formed well-defined submicron aggregates

Compound: CC1=CC(=O)c2ccccc2C1=O [Men, menadione]
- viability at 3 h, 25 μM [10]: ~17%

Compound: [Cl-].[Cl-].[Co+2] [CoCl2, cobalt (II) chloride]
- cell viability, damaging factor alone ([2]; CoCl2 2.5 mM, 24 h): 55%

Compound: N=C(N)NCCC[C@H](NC(=O)[C@H](Cc1ccc(O)cc1)NC(=O)CCCCC[P+](c1ccccc1)(c1ccccc1)c1ccccc1)C(=O)N[C@@H](Cc1ccccc1)C(=O)N[C@@H](CCCCN)C(N)=O [TPP-6-YRFK-NH2]
- half-life at 0.5 mg/mL ([7]; pancreatic trypsin in PBS): ~70 min
- time during which cleavage was initially retarded [7]: approximately 60 min
- concentrations at which the inhibitory effect toward the reaction was observed ([11]; 0.2 mM CoCl2, 22 mM H2O2, PBS): > 250 µM
- EC50 ([11]; ROS generation in CoCl2/H2O2 reaction, read-out: half-maximal inhibitory concentration (EC50)): 500 ± 25 µM
- increase of proliferation [12]: up to 20%
- concentration at which cell proliferation was decreased ([8]; effect disappeared in lower and higher concentration ranges): around 100 μM
- cell viability ([2]; rat): ~126%
- aggregative properties [9]: formed well-defined submicron aggregates

Compound: N[C@@H](CCC(=O)O)C(=O)O [^LGlu, L-glutamic acid]
- viability at 24 h, 50 mM [13]: 37.1%
